In patent US9416103B2, “Use of the aminoalkylindole JWH-073-M4 and related compounds as neutral CB1 receptor antagonists for the treatment of alcoholism, drug abuse, obesity, and obesity-related diseases” (The Board of Trustees of the University of Arkansas, priority 2012, dated 2016):
Where two headings read alike, the source gives them in different places.

What was measured:
[1] = target: CB1Rs (Mus musculus (Mouse), UniProt P47746); assay: Competition receptor binding with [3H]CP-55,940 in mouse brain homogenates
Method: Mouse brain homogenates for in vitro assays were prepared as previously described. Briefly, whole brains were harvested from B6SJL mice, snap-frozen in liquid nitrogen and stored at −80° C. On the day membrane homogenates were to be prepared, brains were thawed on ice, then pooled in a 40 mL Dounce glass homogenizer and suspended in 5 volumes of ice cold homogenization buffer (50 mM HEPES, pH 7.4, 3 mM MgCl2, and 1 mM EGTA). Brains were then subjected to 10 complete strokes with an A pestle, followed by centrifugation at 40,000×g for 10 minutes at +4° C. Resulting supernatants were discarded, and the pellet was resuspended, homogenized and centrifuged similarly twice more, with supernatants being discarded. For the final resuspension and homogenization with a B pestle, ice-cold 50 mM HEPES was used in place of homogenization buffer, and homogenates were aliquoted and stored at −80° C. Protein concentrations of homogenates were determined using the BCA™ Protein Assay (Thermo Scientific, Rockford, Ill.).
Competition receptor binding was performed as previously described. […] Reactions were terminated by rapid vacuum filtration through Whatman GF/B glass fiber filters, followed by five washes with ice-cold buffer (50 mM Tris, 0.05% BSA). Filters were immediately placed into 7 mL scintillation vials to which 4 mL of ScintiVerse™ BD Cocktail scintillation fluid (Fisher Scientific, Fair Lawn, N.J.) was added. Bound radioactivity was determined after overnight incubation at room temperature and shaking, by liquid scintillation spectrophotometry with an efficiency of 44% (Tri Carb 2100 TR Liquid Scintillation Analyzer, Packard Instrument Company, Meriden, Conn.). Specific binding is expressed as total binding minus non-specific binding, and is graphed for each data point as a percentage of specific binding occurring in the absence of any competitor.
Curve fitting and statistical analyses for in vitro experiments were performed using GraphPad Prism™ version 5.0b (GraphPad Software Inc., San Diego, Calif.). The Cheng-Prusoff equation [45] was used to convert the experimental IC50 values obtained from competition receptor binding experiments to Ki values, a quantitative measure of receptor affinity. Non-linear regression for one-site competition was used to determine the IC50 for competition receptor binding. Curve fitting of concentration-effect curves via non-linear regression was also employed to determine the EC50 (a measure of potency) and Emax (a measure of efficacy) for [^35S]GTPγS concentration-effects experiments. […] Data are expressed as mean±SEM. The Student's t-test was used to determine statistical significance (P<0.05) between two groups, while a one-way ANOVA, followed by Tukey's Multiple Comparison post-hoc test, was used to determine statistical significance (P<0.05) between three or more groups.
The prepared analogues were subjected to in vitro pharmacological testing, which included receptor binding and functional assays at both cannabinoid receptors. Initial receptor binding screens at both CB1Rs and CB2Rs were conducted for the analogues prepared.

[2] = test system: NIH Swiss mice; assay: Core body temperature by biotelemetry (cannabinoid tetrad, hypothermia); assay type: in vivo, mouse
Method: Prior to surgery (see below), male NIH Swiss mice (Harlan Sprague Dawley Inc., Indianapolis, Ind.), weighing approximately 25-30 g, were housed 3 animals per Plexiglas® cage (15.24×25.40×12.70 cm) in a temperature-controlled room in an Association for Assessment and Accreditation of Laboratory Animal Care (AAALAC) accredited animal facility at the University of Arkansas for Medical Sciences. Room conditions were maintained at 22±2° C. and 45-50% humidity. Lights were set to a 12-h light/dark cycle. Animals were fed Lab Diet rodent chow (Laboratory Rodent Diet #5001, PMI Feeds, Inc., St. Louis, Mo.) and water ad libitum throughout testing Animals were acclimated to the laboratory environment for ˜7 days prior to experiments, and to the biotelemetry chambers for at least 2 hours prior to initiation of data acquisition. All test conditions used groups of 5 or 6 mice, and all mice were drug-naïve (with the exception of surgical anesthetics) prior to testing.
Cannabinoid effects on core temperature and locomotor activity were measured using surgically-implanted biotelemetry probes. Following appropriate anesthetization with ketamine (100 mg/kg, intraperitoneal [i.p.]) and xylazine (10 mg/kg, i.p.), the abdominal area of each mouse was shaved and sanitized with iodine swabs. A rostral-caudal cut approximately 1.5 cm in length was made with skin scissors, providing access to the intraperitoneal cavity. A cylindrical glass-encapsulated radiotelemetry probe (model ER-4000 E-Mitter, Mini Mitter Co., Inc., Bend, Oreg.) was then inserted, and the incision was closed using absorbable 5-0 chromic gut suture material. At least 7 days were imposed between surgery and experimental observation of cannabinoid effects to allow incisions to heal and mice to recover normal body weights. Following surgery, implanted mice were individually housed in Plexiglas® mouse cages (15.24×25.40×12.70 cm) for the duration of all temperature and locomotor activity experiments Implanted transmitters produced activity- and temperature-modulated signals that were transmitted to a receiver (model ER-4000 Receiver, Mini Mitter Co., Inc., Bend, Oreg.) underneath each mouse cage. Receivers were housed in light- and sound-attenuating cubicles (Med Associates model ENV-022MD, St. Albans, Vt.) equipped with exhaust fans, which further masked ambient laboratory noise. On experimental days, mice were weighed, marked, and returned to their individual cages during which at least 1 hr of baseline data were collected. […]. Mice were then placed into a new cage with fresh bedding to stimulate exploratory behavior. Temperature and locomotor activity data were collected at regular 5-min intervals and processed simultaneously by the Vital View data acquisition system (Mini Mitter Co., Inc., Bend, Oreg.) for at least 10 hrs.
For core body temperature experiments, the area under the curve (AUC) was calculated using a trapezoidal rule from 0-500 minutes, and statistical significance (P<0.05) was determined using a one-way ANOVA, followed by Tukey's HSD post-hoc test. For locomotor activity, total locomotor counts were summed from 0-800 minutes. Because locomotor, analgesia and catalepsy data were not normally distributed, Kruskal-Wallis one-way ANOVA on ranks were performed, and all pair-wise comparisons were then made using the Tukey's HSD tests. In vivo statistical calculations were performed using SigmaStat 3 (Systat Software, Inc., San Jose, Calif.).

[3] = mouse brain homogenates, 0.2 nM [3H]CP-55,940, read-out: [3H]CP binding Ki

| SMILES | Ki ([1]; Table 3, read-out: mCB1R Ki) [µM] | Ki [1, 3] [µM] | minimum core body temperature recorded ([2]; 10 mg/kg, i.p.) [°C] | time to maximal core body temperature reduction ([2]; 10 mg/kg, i.p.) [min] | Ki ([1]; mouse brain homogenates, 0.2 nM [3H]CP-55,940, listed as JWH-073-M4, read-out: [3H]CP binding Ki) [µM] | JWH-018-induced hypothermia blunted by co-administration, core body temperature ([2]; M4 10 mg/kg i.p. co-administered with JWH-018 3 mg/kg i.p.) | change in body temperature, given alone ([2]; M4 10 mg/kg, i.p., alone) |
| --- | --- | --- | --- | --- | --- | --- | --- |
| CCCCn1cc(C(=O)c2cccc3ccccc23)c2ccccc21 [JWH-073, (1-butyl-1H-indole-3-yl)-1-naphthalenyl-methanone] | 0.0129 ± 0.0034 | 0.0129 ± 0.0034 | 29.74±1.44 | 54.17 ± 5.23 | – | – | – |
| CCCCn1cc(C(=O)c2cccc3ccccc23)c2cccc(O)c21 [Compound M4] | 0.0242 ± 0.0172 | 0.122 | – | – | ~0.12 | 33.09+/−0.70 °C | no significant change in body temperature |
